Results: patent US11667649B2, “Heteroaromatic macrocyclic ether chemotherapeutic agents” (Nuvalent, Inc., priority 2020, dated 2023)

Test system: TPM3-NTRK1-wt IC50 / primary target (e.g. CD74-ROS1-wt) IC50, Ba/F3 cells
Test: Cell assay TRKA selectivity (TRKA potency divided by primary target potency)
Assay type: cell-based
Settings: for TPM3-NTRK1-wt/CD74-ROS1-G2032R: TRKA selectivity ratio: TPM3-NTRK1-wt IC50 / CD74-ROS1-G2032R IC50, Ba/F3 cells; for TPM3-NTRK1-wt/CD74-ROS1-wt: TRKA selectivity ratio: TPM3-NTRK1-wt IC50 / CD74-ROS1-wt IC50, Ba/F3 cells; for TPM3-NTRK1-wt/EML4-ALK-L1196M-G1202R: TRKA selectivity ratio: TPM3-NTRK1-wt IC50 / EML4-ALK-L1196M-G1202R IC50, Ba/F3 cells; for TPM3-NTRK1-wt/EML4-ALK-wt: TRKA selectivity ratio: TPM3-NTRK1-wt IC50 / EML4-ALK-wt IC50, Ba/F3 cells
Method in brief: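 Ratio of TRKA to primary-target cellular IC50 (e.g. TPM3-NTRK1-wt/CD74-ROS1-wt), grouped into bins A >30, B >10, C ≥1, D <1. Each IC50 came from engineered Ba/F3 fusion lines grown without IL-3, dosed for 72 h and read as CellTiter-Glo luminescence, with a four-parameter logistic fit.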

Row | Compound | TPM3-NTRK1-wt/CD74-ROS1-G2032R | TPM3-NTRK1-wt/CD74-ROS1-wt | TPM3-NTRK1-wt/EML4-ALK-L1196M-G1202R | TPM3-NTRK1-wt/EML4-ALK-wt
1 | C[C@H]1Oc2cc(cnc2N)-c2c(nn(C)c2C#N)Cc2cn(C)nc2-c2ccc(F)cc21 [Example 111, (19R)-22-amino-16-fluoro-4,10,19-trimethyl-20-oxa-4,5,10,11,23-pentaazapentacyclo[19.3.1.0^2,^6.0^8,^12.0^13,^18]pentacosa-1(24),2,5,8,11,13,15,17,21(25),22-decaene-3-carbonitrile] | B (bin B for high selectivity, ratio>10-fold) | A (bin A for very high selectivity, ratio>30-fold) | C (bin C for moderate selectivity, ratio≥1) | A (bin A for very high selectivity, ratio>30-fold)
2 | CCn1nnc2c1-c1cnc(N)c(c1)O[C@H](C)c1cc(F)ccc1-c1nscc1C2 [Example 95, (19R)-3-ethyl-16-fluoro-19-methyl-20-oxa-10-thia-3,4,5,11,23-pentaazapentacyclo[19.3.1.0^2,^6.0^8,^12.0^13,^18]pentacosa-1(24),2(6),4,8,11,13,15,17,21(25),22-decaen-22-amine] | A (bin A for very high selectivity, ratio>30-fold) | A (bin A for very high selectivity, ratio>30-fold) | C (bin C for moderate selectivity, ratio≥1) | A (bin A for very high selectivity, ratio>30-fold)
3 | CCn1ncc2c1-c1cnc(N)c(c1)OCc1cc(F)ccc1-n1nc(C)cc1C2 [Example 69, 3-ethyl-16-fluoro-10-methyl-20-oxa-3,4,11,12,23-pentaazapentacyclo[19.3.1.0^2,^6.0^8,^12.0^13,^18]pentacosa-1(24),2(6),4,8,10,13,15,17,21(25),22-decaen-22-amine] | A (bin A for very high selectivity, ratio>30-fold) | A (bin A for very high selectivity, ratio>30-fold) | B (bin B for high selectivity, ratio>10-fold) | A (bin A for very high selectivity, ratio>30-fold)
4 | CCc1nn(C)c2c1-c1cnc(N)c(c1)O[C@H](C)c1cc(F)ccc1-c1nn(C)cc1C2 [Example 171, (19R)-3-ethyl-16-fluoro-5,10,19-trimethyl-20-oxa-4,5,10,11,23-pentaazapentacyclo[19.3.1.0^2,^6.0^8,^12.0^13,^18]pentacosa-1(24),2(6),3,8,11,13,15,17,21(25),22-decaen-22-amine] | A (bin A for very high selectivity, ratio>30-fold) | A (bin A for very high selectivity, ratio>30-fold) | B (bin B for high selectivity, ratio>10-fold) | A (bin A for very high selectivity, ratio>30-fold)
5 | CCn1ncc2c1-c1cnc(N)c(c1)O[C@H](C)c1cc(F)ccc1-n1nc(C#N)cc1C2 [Example 51, (19R)-22-amino-3-ethyl-16-fluoro-19-methyl-20-oxa-3,4,11,12,23-pentaazapentacyclo[19.3.1.0^2,^6.0^8,^12.0^13,^18]pentacosa-1(24),2(6),4,8,10,13,15,17,21(25),22-decaene-10-carbonitrile] | C (bin C for moderate selectivity, ratio≥1) | C (bin C for moderate selectivity, ratio≥1) | C (bin C for moderate selectivity, ratio≥1) | D (bin D for low selectivity, ratio<1)
6 | Cc1nc2c(s1)Cc1c(C)nn(CC3CC3)c1-c1cnc(N)c(c1)O[C@H](C)c1cc(F)ccc1-2 [Example 134, (19R)-3-(cyclopropylmethyl)-16-fluoro-5,10,19-trimethyl-20-oxa-9-thia-3,4,11,23-tetraazapentacyclo[19.3.1.0^2,^6.0^8,^12.0^13,^18]pentacosa-1(24),2(6),4,8(12),10,13,15,17,21(25),22-decaen-22-amine] | A (bin A for very high selectivity, ratio>30-fold) | A (bin A for very high selectivity, ratio>30-fold) | A (bin A for very high selectivity, ratio>30-fold) | A (bin A for very high selectivity, ratio>30-fold)
7 | CCc1nn(C)c2c1-c1cnc(N)c(c1)OCc1cc(F)ccc1-n1nc(C)cc1C2 [Example 55, 3-ethyl-16-fluoro-5,10-dimethyl-20-oxa-4,5,11,12,23-pentaazapentacyclo[19.3.1.0^2,^6.0^8,^12.0^13,^18]pentacosa-1(24),2(6),3,8,10,13,15,17,21(25),22-decaen-22-amine] | A (bin A for very high selectivity, ratio>30-fold) | A (bin A for very high selectivity, ratio>30-fold) | C (bin C for moderate selectivity, ratio≥1) | A (bin A for very high selectivity, ratio>30-fold)
8 | C[C@H]1Oc2cc(cnc2N)-c2c(c(C#N)nn2CC2CC2)Cc2cccnc2-c2ccc(F)cc21 [Example 123, (20R)-23-amino-3-(cyclopropylmethyl)-17-fluoro-20-methyl-21-oxa-3,4,12,24-tetraazapentacyclo[20.3.1.0^2,^6.0^8,^13.0^14,^19]hexacosa-1(25),2(6),4,8(13),9,11,14,16,18,22(26),23-undecaene-5-carbonitrile] | C (bin C for moderate selectivity, ratio≥1) | A (bin A for very high selectivity, ratio>30-fold) | C (bin C for moderate selectivity, ratio≥1) | A (bin A for very high selectivity, ratio>30-fold)
9 | CCc1nn(C)c2c1-c1cnc(N)c(c1)OCc1cc(F)ccc1-c1nn(C)cc1C2 [Example 176, 3-ethyl-16-fluoro-5,10-dimethyl-20-oxa-4,5,10,11,23-pentaazapentacyclo[19.3.1.0^2,^6.0^8,^12.0^13,^18]pentacosa-1(24),2(6),3,8,11,13,15,17,21(25),22-decaen-22-amine] | A (bin A for very high selectivity, ratio>30-fold) | A (bin A for very high selectivity, ratio>30-fold) | B (bin B for high selectivity, ratio>10-fold) | A (bin A for very high selectivity, ratio>30-fold)
10 | CC1Oc2cc(cnc2N)-c2c(cnn2C2CCC2)Cn2ccnc2-c2ccc(F)cc21 (centres unmarked) [Example 37, 3-cyclobutyl-16-fluoro-19-methyl-20-oxa-3,4,8,11,23-pentaazapentacyclo[19.3.1.0^2,^6.0^8,^12.0^13,^18]pentacosa-1(24),2(6),4,9,11,13,15,17,21(25),22-decaen-22-amine] | A (bin A for very high selectivity, ratio>30-fold) | A (bin A for very high selectivity, ratio>30-fold) | A (bin A for very high selectivity, ratio>30-fold) | A (bin A for very high selectivity, ratio>30-fold)
11 | CCn1ncc2c1-c1cnc(N)c(c1)O[C@H](C)c1cc(F)ccc1-c1nccc(OC)c1C2 [Example 151, (20R)-3-ethyl-17-fluoro-9-methoxy-20-methyl-21-oxa-3,4,12,24-tetraazapentacyclo[20.3.1.0^2,^6.0^8,^13.0^14,^19]hexacosa-1(25),2(6),4,8(13),9,11,14,16,18,22(26),23-undecaen-23-amine] | A (bin A for very high selectivity, ratio>30-fold) | A (bin A for very high selectivity, ratio>30-fold) | C (bin C for moderate selectivity, ratio≥1) | A (bin A for very high selectivity, ratio>30-fold)
12 | CCn1ncc2c1-c1cnc(N)c(c1)OCc1cc(F)ccc1-n1nc(Cl)cc1C2 [Example 75, 10-chloro-3-ethyl-16-fluoro-20-oxa-3,4,11,12,23-pentaazapentacyclo[19.3.1.0^2,^6.0^8,^12.0^13,^18]pentacosa-1(24),2(6),4,8,10,13,15,17,21(25),22-decaen-22-amine] | A (bin A for very high selectivity, ratio>30-fold) | A (bin A for very high selectivity, ratio>30-fold) | C (bin C for moderate selectivity, ratio≥1) | A (bin A for very high selectivity, ratio>30-fold)
13 | C[C@H]1Oc2cc(cnc2N)-c2c(C#N)ncn2Cc2cccnc2-c2ccc(F)cc21 [Example 12, (20R)-23-amino-17-fluoro-20-methyl-21-oxa-4,6,12,24-tetraazapentacyclo[20.3.1.0^2,^6.0^8,^13.0^14,^19]hexacosa-1(25),2,4,8(13),9,11,14,16,18,22(26),23-undecaene-3-carbonitrile] | A (bin A for very high selectivity, ratio>30-fold) | A (bin A for very high selectivity, ratio>30-fold) | A (bin A for very high selectivity, ratio>30-fold) | A (bin A for very high selectivity, ratio>30-fold)
14 | CCn1ncc2c1-c1cnc(N)c(c1)OCc1cc(F)ccc1-c1nc(C)sc1C2 [Example 89, 3-ethyl-16-fluoro-10-methyl-20-oxa-9-thia-3,4,11,23-tetraazapentacyclo[19.3.1.0^2,^6.0^8,^12.0^13,^18]pentacosa-1(24),2(6),4,8(12),10,13,15,17,21(25),22-decaen-22-amine] | A (bin A for very high selectivity, ratio>30-fold) | A (bin A for very high selectivity, ratio>30-fold) | B (bin B for high selectivity, ratio>10-fold) | A (bin A for very high selectivity, ratio>30-fold)
